In ChEMBL document CHEMBL3988442, “University of Dundee, Small-Polar-MMV Screening Library” (2021):

Test system: Schistosoma mansoni
Assay: High throughput screening of compounds against Schistosoma mansoni motility
Format: functional
Parameters: dose or concentration left out as unconfirmed

Row | Structure (SMILES) | Percent Effect
1 | COc1ccccc1OCC(=O)Nc1ncccc1Cl | -2.169%
2 | CCCOc1cc(C)ccc1NC(=O)NCCC(=O)N(C)C | -17.12%
3 | CC(OCC(F)(F)F)C(=O)N1CCN(S(C)(=O)=O)CC1 (stereo not drawn) | -54.53%
4 | O=C(CN(Cc1cccnc1)CC1CCCO1)Nc1ccc(F)cc1 (stereo not drawn) | -30.42%
5 | CCn1nc(CC(C)C)cc1C(=O)NCCn1cccc1 | -58.97%
6 | CN1CCN(CCCNC(=O)c2cc(Cl)c3c(c2)OCO3)CC1 | -22.9%
7 | Cc1ccn(-c2ccccc2NCc2ncc[nH]2)n1 | -21.01%
8 | CC(C)CNC(=O)NC(=O)CNc1ccccc1SCC(C)C#N (stereo not drawn) | -9.977%
9 | COCC(=O)N1Cc2cnc(Cc3ccc(OC)cc3)nc2C1 | -28.71%
10 | CCC(CC)c1cc(C(=O)N2CCCC(n3cncn3)C2)on1 (stereo not drawn) | 1.073%
11 | CC(C)c1n[nH]c(C2CN(C(=O)CCCn3cccn3)CCO2)n1 (stereo not drawn) | 21.88%
12 | CN1CCC(c2nnc(CN3CCC(O)CC3)n2C)CC1 | -3.365%
13 | CC(C)NC(=O)N1CCC(n2ccc(C(F)(F)F)n2)CC1 | -11.19%
14 | O=C1NCCCCC1Sc1nnc(C2CC2)n1C1CC1 (stereo not drawn) | -44.06%
15 | Cc1cc(C)n(Cc2ccc(C(=O)NCCN3CCOCC3)cc2)n1 | -9.196%
16 | Cc1ccc(F)c(OC2(C(=O)O)CCN(C(=O)N3CCCC3)CC2)c1 | -4.164%
17 | CC1CCN(CCNC(=O)C2CCN(S(N)(=O)=O)CC2)CC1 | 6.276%
18 | O=C(CCc1cc2n(n1)CCCN(C(=O)c1cccnc1)C2)NC1CC1 | 5.877%
19 | CC(C)(C)C(=O)NCCC(=O)NC(C)(C)c1ccc2c(c1)OCCO2 | -18.95%
20 | CN(CCCc1cnn(C)c1)C(=O)C1COc2ccccc2C1 (stereo not drawn) | -70.43%
21 | Cn1cnnc1S(=O)(=O)C1CCN(S(=O)(=O)C2CC2)CC1 | -25.74%
22 | CC(=O)NC(C)CC(=O)NCc1cccnc1Oc1ccccc1C (stereo not drawn) | 11.59%
23 | OCCC1CN(C2CCC2)CCN1C1CCCC1 (stereo not drawn) | -52.06%

Row | Structure (SMILES) | Percent Effect
24 | CC(C)c1nn(CC(=O)N2CCCCC2)c(=O)c2c1cnn2C(C)(C)C | -88.07%
25 | Cc1cc(C[C@@H]2COC[C@@H]2NC(=O)CN2CCCC2)on1 | -45.11%
26 | COC(=O)c1sccc1S(=O)(=O)N1CCC(Oc2ncccc2Cl)CC1 | -59.58%
27 | CC(=O)NCC1CCN(CC2CCOc3ccccc3C2)CC1 (stereo not drawn) | -62.7%
28 | Cc1ccc(S(=O)(=O)NC2CC2)cc1C | -24.32%
29 | CN(C)S(=O)(=O)N1CCN(c2nccc(C(F)(F)F)n2)CC1 | -52.05%
30 | CC1CCN(CCNC(=O)c2cncnc2C(C)C)CC1 | -17.46%
31 | CC(=O)NCCN1CCC(c2cccs2)CC1 | -65.41%
32 | Cl.NC(=O)COc1ccc(CNCc2ccc(F)cc2F)cc1 | -10.97%
33 | O=S1(=O)CCCN1Cc1coc(-c2cccs2)n1 | -11.58%
34 | N#Cc1ccc(CNCC2CCN(CCO)CC2)cc1 | -28.87%
35 | CCCNC(=O)C(C)NC(=O)CCc1ccccc1Br (stereo not drawn) | 31.68%
36 | O[C@H]1[C@H](n2cc(-c3ccccc3)nn2)c2ccccc2C12CCNCC2 | 3.648%
37 | CSCC(C)(O)CNC(=O)c1cc(Br)ccc1Cl (stereo not drawn) | -27.72%
38 | CCN1CCN(S(=O)(=O)c2ncn(C)c2Cl)CC1 | -72.02%
39 | NC(=O)NCC(=O)N1C[C@H]2CC[C@@H]1CN(Cc1ccccc1)C2 | -13.56%
40 | CC(C1CC1)N(C(=O)NCCCn1nc2ccccn2c1=O)C1CC1 (stereo not drawn) | -46.88%
41 | Cc1cnc2n(c1=O)CC(C(=O)NC1CC1)CS2 (stereo not drawn) | -61.59%
42 | CCCNCC1(O)CCCN(Cc2cccc(C)c2)C1=O (stereo not drawn) | -43.91%
43 | CN(C)C(=O)CNC(=O)Nc1cccc(Cl)c1SC(F)F | -29.89%
44 | CCc1ccc(C(=O)N2CCCC(n3cncn3)C2)o1 (stereo not drawn) | -35.91%
45 | Nc1cc(CCCNC(=O)NC2CC2)nn1-c1ccccc1 | -35.32%
46 | N#CC1(C(=O)Nc2ccc(OC(F)F)cc2)CCCC1 | 6.367%

Row | Structure (SMILES) | Percent Effect
47 | Cc1cc(N2CCN(Cc3nccn3C)CC2)cc(C)n1 | -24.56%
48 | COCC(C)(O)CNC(=O)COc1ccccc1OC (stereo not drawn) | -28.83%
49 | Cc1cc(N2CCC(c3nnc(CN(C)C)n3C3CC3)CC2)ccn1 | -0.2407%
50 | COC(=O)c1sccc1S(=O)(=O)N1CCC(Oc2cccnn2)CC1 | -55.3%
51 | CCCOc1ccc(NC(=O)NCCC(=O)N(C)C)cc1Cl | -22.9%
52 | O=C(c1cn(-c2cc(N3CCSCC3)ncn2)cn1)N1CCSCC1 | -48.35%
53 | COc1ccc(Br)c(C(=O)NCC2CCN(C(=O)c3ccoc3)CC2)c1 | -63.91%
54 | CCc1ncncc1C(=O)NCCN1CCC(C)CC1 | -31.56%
55 | O=C(CSc1ccncc1)N1C[C@H]2CC[C@@H]1CN(Cc1cccnc1)C2 | -27.79%
56 | Cc1ccsc1[C@@H]1CCN(C(=O)c2cc3ccccc3[nH]2)C[C@H]1O | 28.15%
57 | CN(C)C(C(=O)N1CCC(N2CCSCC2)CC1)c1ccccc1F (stereo not drawn) | 10.46%
58 | CN(C)C(C(=O)N1CCCC1)c1ccccc1F (stereo not drawn) | -55.33%
59 | Cc1cc(F)ccc1CNCCn1cccn1 | -28.39%
60 | CC(C)S(=O)(=O)NCC1CCCN(C(=O)c2cccnc2)C1 (stereo not drawn) | -61.29%
61 | Cc1cnc2n(c1=O)CC(C(=O)Nc1ccccc1Cl)CS2 (stereo not drawn) | -94.31%
62 | O=C(CCc1ccc(=O)[nH]n1)N1CCCC(COc2ccc(F)cc2)C1 (stereo not drawn) | 4.924%
63 | CCSCC(C)NCc1nncn1C1CCCCC1 (stereo not drawn) | 1.244%
64 | CCc1ccccc1C(=O)N1CCN(S(C)(=O)=O)[C@@H](C)C1 | -27.03%
65 | CCC(=O)N1CCC(c2nnc(Cn3cccn3)n2C2CC2)CC1 | -15.52%
66 | CCN(CC)C(=O)c1ccc(-c2ccsc2)nc1C | -45.64%
67 | COCc1ccccc1NC(=O)[C@@H]1CCCN1C(=O)c1ccco1 | -9.117%
68 | Cc1cc(CC(=O)N2CCN(CC3CC3)[C@@H]3CS(=O)(=O)C[C@@H]32)ccc1F | 11.19%
69 | CCS(=O)(=O)N1CCC(c2nnc(Cn3cccn3)n2C2CC2)CC1 | -7.484%

Row | Structure (SMILES) | Percent Effect
70 | O=C(NCCn1ccc(-c2ccncc2)n1)c1ccncc1 | -35.45%
71 | CCc1nnc2n1CCN(C(=O)c1cnc3ccccc3n1)C2 | -44.56%
72 | O=C(NCC1CCN(C(=O)c2ccoc2)CC1)c1ccccc1Br | -0.2634%
73 | Cc1nc(CC(=O)N2CCC[C@H]2c2nc(C(C)C)no2)cs1 | 11.66%
74 | COc1ccc(-n2nnc(C(=O)NC(C)C)c2C2CC2)cc1 | 0.8394%
75 | CN(C)C(=O)N1C[C@@H]2CC[C@H](C1)N(Cc1ccc3nsnc3c1)C2 | -20.59%
76 | CN(C)S(=O)(=O)N1CCC(Oc2ccc(C#N)cc2)CC1 | 21.82%
77 | NC(=O)c1cccc(CC2CCN(C(=O)CCCN3CCOCC3)C2)c1 (stereo not drawn) | -44.07%
78 | CN1C(=O)C(C)(C)COc2cc(NS(=O)(=O)c3ccccc3)ccc21 | 35.25%
79 | O=C1CC2(CCN(CCO)CC2)CN1Cc1cc(F)cc(F)c1 | 8.592%
80 | COC(=O)c1sccc1NC(=O)C1CCCN1C(=O)c1ccco1 (stereo not drawn) | 1.887%
81 | COc1ccc(Br)c(C(=O)NCC2CCN(S(=O)(=O)C3CC3)CC2)c1 | -3.942%
82 | CCCc1n[nH]c(C2CN(CCn3cccn3)CCO2)n1 (stereo not drawn) | 4.257%
83 | Cc1nccn1-c1cc(CNC(=O)c2ccccn2)ccn1 | -81.26%
84 | COc1nc2c(cc1C(=O)N1C[C@H](N)C[C@H]1C(=O)NC(C)C)CCC2 | 37.99%
85 | CCN1CCCC1CN(CCN(C)C)S(=O)(=O)c1cccc(C#N)c1 (stereo not drawn) | 27.57%
86 | Cc1nc(C(C)(C)NC(=O)Nc2cccc(C#N)c2)no1 | -35.79%
87 | Cc1ccc(C(=O)N2CCC3(CCC(=O)N(CC(N)=O)C3)CC2)c(O)c1 | -13.5%
88 | O=C1CCSCC(C(=O)N2CCN(C3CCCCC3)CC2)N1 (stereo not drawn) | -48.25%
89 | CC(NC(=O)C1=NN(C)C(=O)CC1)c1ccc(F)cc1F (stereo not drawn) | -36.47%
90 | CCn1c(CN(C)C)nnc1C1CCN(c2ccnc(C)c2)CC1 | 3.943%
91 | CN(C)C(=O)C1CCCN1CCCNC(=O)c1ccccc1F (stereo not drawn) | -45.94%
92 | O=C1CCSCC(C(=O)N2CCOCC2)N1 (stereo not drawn) | -55.74%

Row | Structure (SMILES) | Percent Effect
93 | Cn1cnc(S(=O)(=O)N2CCN(Cc3ccco3)CC2)c1Cl | -70.1%
94 | Cc1cnn(CC(C)NCc2nc(-c3cccnc3)no2)c1 (stereo not drawn) | -19.9%
95 | COc1ccc(C2CCCN2C(=O)NCCNc2ncccn2)cc1 (stereo not drawn) | -55.34%
96 | NC(=O)CN1CCCN(C(=O)c2ccn(-c3cccc(F)c3)n2)CC1 | -9.604%
97 | O=C1CN(Cc2nnc(-c3ccc(Br)o3)o2)CCN1 | -20.64%
98 | Cc1cccc(CNCc2c(C)nn(C)c2N2CCOCC2)n1 | -105.3%
99 | Cc1cnn(CC2CCCN2Cc2coc(-c3cccs3)n2)c1 (stereo not drawn) | -52.32%
100 | Cc1cccc(CCC(=O)N2CCOCC2c2c(C)n[nH]c2C)c1 (stereo not drawn) | -56.4%
101 | O=C(CN1CCCC1Cn1cncn1)NC(C1CC1)C1CC1 (stereo not drawn) | -24.22%
102 | O=C(Nc1nccs1)N1CCCC(N2CCNC2=O)C1 (stereo not drawn) | -22.52%
103 | CCC(=O)N1CCC2(CC1)c1nc[nH]c1CCN2S(C)(=O)=O | -32.51%
104 | CCOc1ncccc1NC(=O)c1sccc1C | -42.63%
105 | CSc1ncc(C(=O)N2C[C@H]3CC[C@@H]2CN(Cc2ccccc2)C3)cn1 | -35.01%
106 | CNC(=O)CS(=O)(=O)C1CCN(S(=O)(=O)c2ccccc2Br)CC1 | -49.15%
107 | O=C(NCC(Cc1cccc(F)c1)N1CCCC1=O)c1cnccn1 (stereo not drawn) | 3.976%
108 | CC(C)(C(=O)NCC1CC1)c1ccccc1F | 9.48%
109 | COCCN(Cc1ccc(F)cc1Cl)C(=O)c1cccc[n+]1[O-] | -17.57%
110 | Cc1cc(C)n(CC(=O)N2CCC(c3nc(C)no3)CC2)n1 | -18.96%
111 | Cc1cc(-c2nnc(SCC(=O)O)n2C(C)c2ccccc2)nn1C (stereo not drawn) | -38.23%
112 | Cc1cnc2c(c1NCc1ccncc1)c(=O)n(C)c(=O)n2C | -90.48%
113 | CC(COc1ccccc1)NCc1nc(-c2cccnc2)no1 (stereo not drawn) | -35.35%
